Experimental data taken from ChEMBL document CHEMBL3870345, “Bioactive chemical constituents from the root bark of Morus australis” (Bioorg Med Chem Lett, 2017).
Values after ≈ are worked out from the molar mass of the structure shown.

Key:
[1] = Antiplatelet aggregatory activity against New Zealand white rabbit platelets at 10 uM preincubated for 2 to 3 mins followed by PAF-addition measured after 4 mins by turbidometric method relative to vehicle control; type: functional, Oryctolagus cuniculus, Platelet
[2] = Cytotoxicity against mouse RAW264.7 cells assessed as cell viability at 25 ug/ml measured after 24 hrs in presence of LPS by MTT assay (reference value: 96.3 +/- 1%); type: toxicity; conditions: read-out: Activity
[3] = Cytotoxicity against mouse RAW264.7 cells assessed as cell viability at 12.5 ug/ml measured after 24 hrs in presence of LPS by MTT assay (reference value: 96.3 +/- 1%); type: toxicity; conditions: read-out: Activity
[4] = Antiplatelet aggregatory activity against New Zealand white rabbit platelets at 100 uM preincubated for 2 to 3 mins followed by ADP-addition measured after 4 mins by turbidometric method relative to vehicle control; type: functional, Oryctolagus cuniculus, Platelet
[5] = Antiplatelet aggregatory activity against New Zealand white rabbit platelets at 100 uM preincubated for 2 to 3 mins followed by arachidonic acid -addition measured after 4 mins by turbidometric method relative to vehicle control; type: functional, Oryctolagus cuniculus, Platelet
[6] = Antiplatelet aggregatory activity against New Zealand white rabbit platelets at 100 uM preincubated for 2 to 3 mins followed by PAF-addition measured after 4 mins by turbidometric method relative to vehicle control; type: functional, Oryctolagus cuniculus, Platelet
[7] = Antiplatelet aggregatory activity against New Zealand white rabbit platelets preincubated for 2 to 3 mins followed by ADP-addition measured after 4 mins by turbidometric method; type: functional, cell-based, Oryctolagus cuniculus; conditions: platelet
[8] = Antiplatelet aggregatory activity against New Zealand white rabbit platelets preincubated for 2 to 3 mins followed by arachidonic acid-addition measured after 4 mins by turbidometric method; type: functional, cell-based, Oryctolagus cuniculus; conditions: platelet
[9] = Cytotoxicity against mouse RAW264.7 cells assessed as cell viability at 1.562 ug/ml measured after 24 hrs in presence of LPS by MTT assay (reference value: 96.3 +/- 1%); type: toxicity; conditions: read-out: Activity
[10] = Cytotoxicity against mouse RAW264.7 cells assessed as cell viability at 3.125 ug/ml measured after 24 hrs in presence of LPS by MTT assay (reference value: 96.3 +/- 1%); type: toxicity; conditions: read-out: Activity
[11] = Cytotoxicity against mouse RAW264.7 cells assessed as cell viability at 6.25 ug/ml measured after 24 hrs in presence of LPS by MTT assay (reference value: 96.3 +/- 1%); type: toxicity; conditions: read-out: Activity
[12] = Cytotoxicity against mouse RAW264.7 cells assessed as cell viability at 50 ug/ml measured after 24 hrs in presence of LPS by MTT assay (reference value: 96.3 +/- 1%); type: toxicity; conditions: read-out: Activity
RAW264.7 [13] = assay: Inhibition of LPS-induced NO production in mouse RAW264.7 cells at 1.562 ug/ml measured after 24 hrs by Griess assay relative to LPS-treated control; type: functional; conditions: RAW264.7, 24 h
RAW264.7 [14] = assay: Inhibition of LPS-induced NO production in mouse RAW264.7 cells at 3.125 ug/ml measured after 24 hrs by Griess assay relative to LPS-treated control; type: functional; conditions: RAW264.7, 24 h
RAW264.7 [15] = assay: Inhibition of LPS-induced NO production in mouse RAW264.7 cells at 6.25 ug/ml measured after 24 hrs by Griess assay relative to LPS-treated control; type: functional; conditions: RAW264.7, 24 h
RAW264.7 [16] = assay: Inhibition of LPS-induced NO production in mouse RAW264.7 cells measured after 24 hrs by Griess assay; type: functional, cell-based; conditions: for IC50: RAW264.7, 24 h
RAW264.7 [17] = assay: Inhibition of LPS-induced NO production in mouse RAW264.7 cells at 12.5 ug/ml measured after 24 hrs by Griess assay relative to LPS-treated control; type: functional; conditions: RAW264.7, 24 h
RAW264.7 [18] = assay: Inhibition of LPS-induced NO production in mouse RAW264.7 cells at 25 ug/ml measured after 24 hrs by Griess assay relative to LPS-treated control; type: functional; conditions: RAW264.7, 24 h
[19] = Cytotoxicity against mouse RAW264.7 cells assessed as cell viability at 1.563 ug/ml measured after 24 hrs in presence of LPS by MTT assay (reference value: 96.3 +/- 1%); type: toxicity; conditions: read-out: Activity
RAW264.7 [20] = assay: Inhibition of LPS-induced NO production in mouse RAW264.7 cells at 1.563 ug/ml measured after 24 hrs by Griess assay relative to LPS-treated control; type: functional; conditions: RAW264.7, 24 h
[21] = Antiplatelet aggregatory activity against New Zealand white rabbit platelets at 50 uM preincubated for 2 to 3 mins followed by arachidonic acid -addition measured after 4 mins by turbidometric method relative to vehicle control; type: functional, Oryctolagus cuniculus, Platelet

Row | Compound | viability at 24 h, 25 ug/ml [2] [%] | viability at 24 h, 12.5 ug/ml [3] [%] | Activity [4] | Activity [5] [%] | Activity [6] [%] | viability at 24 h, 3.125 ug/ml [10] [%] | viability at 24 h, 6.25 ug/ml [11] [%] | viability at 24 h, 50 ug/ml [12] [%] | inhibition at 3.125 µg/mL (RAW264.7 [14]) [%] | inhibition at 6.25 µg/mL (RAW264.7 [15]) [%] | inhibition (RAW264.7 [16]) | IC50 (RAW264.7 [16]) [µg/mL] | inhibition at 12.5 µg/mL (RAW264.7 [17]) [%] | further results
1 | CCCCCCCCCCCCCCCCCCNC(=O)OCC(COP(=O)([O-])OCC[n+]1ccsc1)OC (centres undefined) |  |  |  |  |  |  |  |  |  |  |  |  |  | Activity [1]: 85.96%
2 | O=[N+]([O-])/C=C\c1ccc(O)cc1 | 46.9 | 48.3 | 96.35% | 96.03 | 73.02 | 89 | 82.2 | 11.9 | 59.6 | 60 | Dose-dependent effect | 2.1 (≈ 12.7 µM) |  | IC50 [7]: 9.76 µM; IC50 [8]: 9.81 µM; viability at 24 h, 1.562 ug/ml [9]: 94.5%; inhibition at 1.562 µg/mL (RAW264.7 [13]): 46.4%
3 | C=C(C)C(O)CC[C@]1(C)C=Cc2c(cc3oc(-c4ccc(O)cc4)cc(=O)c3c2O)O1 (some centres undefined) |  |  | <60% | <60 | <60 |  |  |  |  |  |  |  |  | 
4 | CC(C)=CCC/C(C)=C/Cc1c(-c2ccc(O)cc2O)oc2c(CC=C(C)C)c(O)cc(O)c2c1=O | 96.8 | 97.1 | 96.37% | 89.66 | 90.15 | 100 | 99.7 | 67 | 30 | 33.7 | Dose-dependent effect | > 25 | 34.1 | inhibition at 25 µg/mL (RAW264.7 [18]): 35%
5 | CC(=O)Oc1ccc(-c2oc3c4c(cc(O)c3c(=O)c2CC=C(C)C)OC(C)(C)C=C4)c(OC(C)=O)c1 | 13.9 | 36.6 | 93.27% | 90.01 | 90.22 | 91 | 80.3 | 11.7 | 58.7 | 69.2 | Dose-dependent effect | 2.4 (≈ 4.76 µM) |  | IC50 [7]: 10.2 µM; viability at 24 h, 1.563 ug/ml [19]: 96%; inhibition at 1.563 µg/mL (RAW264.7 [20]): 40.4%
6 | C=C(C)C(=O)c1c(-c2ccc(O)cc2O)oc2cc3c(c(O)c2c1=O)C=CC(C)(C)O3 |  |  | <60% | <60 | <60 |  |  |  |  |  |  |  |  | 
7 | CC(=O)Oc1ccccc1C(=O)O [ASPIRIN] |  |  |  |  |  |  |  |  |  |  |  |  |  | Activity [21]: 90.62%
8 | CC(C)=CC1Oc2cc(O)ccc2-c2oc3c4c(cc(O)c3c(=O)c21)OC(C)(C)C=C4 (centres undefined) [CYCLOMORUSIN] | 57.6 | 81.9 | <60% | <60 | <60 | 86.3 | 86.2 | 14 | 46.6 | 54.1 | Dose-dependent effect | 4.5 (≈ 10.8 µM) | 73.7 | 
9 | CC(C)(O)CCc1c(-c2ccc(O)cc2O)oc2c3c(cc(O)c2c1=O)OC(C)(C)C=C3 [MORUSINOL] | 36.9 to 49.2 | 69.5 to 82.1 | 57.88 - 78.98% | 50.5 | <60 | 95.9 | 81.9 to 91.3 | 9.9 to 14.4 | 42 to 45.8 | 59 to 62.5 | Dose-dependent effect | 4.1 to 4.6 (≈ 9.35 to 10.5 µM) | 81.4 | 
10 | CC(C)=CCc1c(-c2ccc(O)cc2O)oc2c3c(cc(O)c2c1=O)OC(C)(C)C=C3 [MORUSIN] | 69.6 | 73.8 | 60.22% | <60 | <60 | 94.5 | 83.3 | 23.1 | 15.1 | 23.3 | Dose-dependent effect | > 12.5 | 39.3 | 
11 | CC1(C)C=Cc2c(cc(O)c3c(=O)c4c(oc23)-c2ccc(O)cc2OC(C(C)(C)O)C4)O1 (centres undefined) [NEOCYCLOMORUSIN] | 40.8 | 48.8 | 98.57% | 99.7 | 99.63 | 98.3 | 82.4 | 12.8 | 41.2 | 50.8 | Dose-dependent effect | 6.3 (≈ 14.4 µM) |  | 
